Laboratory results from US20180098969A1, “HODGKIN LYMPHOMA THERAPY” (Purdue Pharmaceutical Products L.P., priority 2016, published 2018).

Key:
[1] = tested on: L428 cells; assay: Orbital tumour mass at injection site in xenografted mice; assay type: in vivo, NSG mice; details: after injection
Experimental: (§1) Two independent experiments were performed to investigate the dose-effect of EDO-S101 in NSG mice eight weeks after xenografting with L428 cells as in Example 8. The aim of the protocol shown in FIG. 8B was to evaluate the effect of sequential treatment with a moderate dose of 60 mg/kg given at an interval of three weeks.
Some mice developed an orbital tumour mass at the site of the injection. […] In one mouse only that was treated with two doses of 60 mg/kg of EDO-S101, a regression of the orbital tumour was initially observed followed by re-establishment of the orbital mass 3 weeks later. However, this was the only instance observed of re-establishment of the orbital mass after treatment with EDO-S101 at either concentration.

[2] = tested on: R100 cell line; assay: ATM/ATR transcripts; assay type: cell-based, human; details: EDO-S101 alone
Experimental: 1.56 μM of EDO-S101 was administered to two Hodgkin lymphoma cell lines, the bendamustine naïve cell line L1236 and the bendamustine resistant cell line R100. In a second experiment, Brentuximab Vedotin was administered at a concentration of 3.12 μg/ml to the L1236 cell line and at a concentration of 0.39 μg/ml to the R100 cell line. Finally, in a third experiment EDO-S101 and Brentuximab Vedotin were administered in combination to each of the two cell lines at the same concentrations that they were administered in the monotherapy experiments.

[3] = tested on: Hodgkin lymphoma cell lines L1236-R100, L1236/DMSO and L1236; assay: Viable cell count and IC50, all three lines; assay type: cell-based, human
Experimental: (§2) (b) The bendamustine-resistant Hodgkin lymphoma cell line L1236-R100, non-resistant L1236 Hodgkin lymphoma cell line cultured in DMSO L1236/DMSO and L1236 was cultured in the presence of EDO-S101 dissolved in DMSO at concentrations of 0.78 μM, 1.56 μM, 3.12 μM, 6.25 μM and 12.5 μM. Control cells were cultured in the same final concentration of DMSO. The number of viable cells was assessed at 24, 48 and 72 hours through a Countess™ automated cell counter (Invitrogen), each experiment being repeated three times and the results given being the mean of the three results ±SD.

[4] = tested on: L1236-R100; assay: Viable cell count and IC50, bendamustine-resistant line; assay type: cell-based, human
Experimental: as §2, with “was cultured in the presence of EDO-S101 dissolved in DMSO at concentrations of 0.78 μM, 1.56 μM, 3.12 μM, 6.25 μM and 12.5 μM.” left out

[5] = Weight of xenografted mice; assay type: in vivo, NSG mice
Experimental: as §1
This weight loss was also observed in mice treated with the vehicle. In contrast, the weight of the control mice receiving only freshly prepared phosphate buffered saline (PBS) buffered to 7.3-7.4 increased up to 11 weeks and then started to decrease.
The toxicity of the dose of 80 mg/kg compared to 60 mg/kg was investigated, as compared to the control groups vehicle and PBS.

In the case of Cn1c(CCCCCCC(=O)NO)nc2cc(N(CCCl)CCCl)ccc21 [EDO-S101], the orbital tumour mass [1] was “signification regression”, the “effect on ATM/ATR unbalance” value [2] was “upregulating ATR and downregulating ATM transcripts” and the “anti-proliferative activity compared with bendamustine” value [3] was “approximately two orders of magnitude greater than for bendamustine”. The “anti-proliferative activity compared with vorinostat” value [4] was “greater than that of vorinostat”, the viable cells ([4]; 48 hours after treatment with 50 μM) was “no viable cells being observed” and the “difference between weight losses” value ([5]; 60 mg/kg versus 80 mg/kg) was “no significant difference”. For the same molecule, the “weight of the mice or the different organs” value ([5]; mouse, in vivo) was “No significant difference” and the “weight of the mice” value ([5]; two doses of 60 mg/kg three weeks apart) was “weight loss following each administration which was regained after several weeks”.
